Assay results published in patent US9156824B2, “CDC7 inhibitors” (Eli Lilly and Company, priority 2013, dated 2015).
Marks after values point to notes of the source that are not given here.

Assays:
[1] = target: T1, CDC7/DBF4 (Homo sapiens, UniProt O00311); assay: CDC7/DBF4 in vitro enzyme assay (Transcreener Kinase ADP-FP); format: biochemical; conditions: ATP 5 μM, MCM2 400 nM, 60 minutes, read-out: IC50 against CDC7/DBF4 kinase
T1 construct: host or cells: insect cells
Procedure: The Transcreener™ Kinase ADP-FP assay is used to determine compound IC50 values against CDC7/DBF4 kinase. The Kinase ADP-FP assay assesses the activity of CDC7/DBF4 in the presence of compound inhibitors by measuring the concentration of ADP formed in a kinase reaction. The kinase reaction is performed using a 25 microliter reaction volume in 96 well assay plate. For the ADP-FP assay, the reagents are added to obtain the final reaction conditions of HEPES (25 mM) pH 7.5, 0.03% Triton® X-100, magnesium chloride (10 mM), DTT (1 mM), MCM2 (400 nM) (Amino Acid 1-209, a physiological substrate of CDC7/DBF4), spermine (4 mM), CDC7/DBF4 (2,640 ng/mL) (recombinant human CDC7/DBF4 expressed in insect cells), 4% dimethyl sulfoxide and serial dilutions of compound (diluted 1:3 from 20,000 nM to 1 nM). Enzyme and substrate is added to compound followed by ATP to 5 μM to start the reaction. The plates are incubated at room temperature for 60 minutes.
For the ADP-FP format add 25 microliters of a quench detection reagent containing HEPES (52 mM) pH 7.5, EDTA (20 mM), sodium chloride (0.4 M), polyoxyethyleneglycol dodecyl ether (0.02%) (BRIJ-35™), anti-ADP antibody (10 μg/mL), and ADP (4 nM) Transcreener® ADP Alexa Fluor® 633 tracer to quench the reaction. The plates are incubated for 1 hour, and then read in a Wallac EnVision™ 2104 Multilabel Reader (PerkinElmer) in Fluorescence Polarization mode using polarizing filters of Ex620nm and Em688nm wavelength. Millipolarization (mP) raw data is converted to micromolar ADP using a prepared ADP/ATP standard curve starting at 5 μM ADP 1:1 serial dilution in reaction buffer to 0.0025 μM ADP. The IC50 value for each compound is derived using percent inhibition data calculated from the μM ADP reaction data relative to on-plate controls (DMSO versus 100 mM EDTA inhibited enzyme controls). The percent inhibition and ten-point compound concentration data is then fitted to a four-parameter logistic equation.

[2] = test system: SW620 xenograft tumors; assay: Antitumor efficacy in human colorectal carcinoma SW620 mouse xenograft model; format: in vivo; conditions: for % T/C day 16: SW620 xenograft
Procedure: (§1) The in vivo anticancer activity of Example 4 is studied in human colorectal adenocarcinoma cell line SW620 mouse xenograft tumor model which is predicted to be sensitive based on in vitro cell counting proliferative assay data described above. The SW620 cell line is obtained from American Type Culture Collection (ATCC) and is cultured in Leibovitz's L-15 Medium with 10% fetal bovine serum following ATCC instructions. SW620 cell suspension (5.0×10^6/0.2 mL) is injected subcutaneously to the right flank of each female athymic Balb/c nude mice. The mice (5-6 weeks old at arrival) are obtained from Shanghai Sippr-bk Laboratory Animals Ltd. Upon receipt and throughout the study, the animals are housed 5 animals per cage in appropriately sized solid-bottom cages with contact bedding Animals are acclimated for 7 days prior to implantation of the SW620 cells. Animals are fed with Shanghai Laboratory Animal Center certified Rodent Diet with 23% Protein ad libitum and autoclaved tap water is provided ad libitum. The animal room is maintained on a 12-hour light/dark cycle. When the tumor volume reaches an average of 154.9 mm^3 (9 days post tumor implantation), the tumor bearing animals are randomly grouped into 9 groups (8 animals/group) with similar mean tumor volume and body weight. The average body weight of the tumor-bearing mice is 17.3 g. The compound is formulated in HEC 1% w/v, P80 0.25% v/v, and antifoam 1520-US 0.025% v/v in deionized water by probe sonication for 15 minutes on ice and compound formulation is prepared daily for animal dosing. The formulated compound is administered at 10.4, 20.8 and 31.2 mg/kg doses (containing 10, 20 and 30 mg/kg active pharmaceutical ingredient API, respectively) twice a day (BID) by oral gavage (0.1 mL/20 g) for 2 weeks. The BID dosing is performed about 8 hours apart (approximately 9 am and 5 pm each day). The vehicle is also given BID as the control arm of the study. Tumor volume and body weight are measured 3 times a week in a blinded manner. Tumor volume is determined by caliper measurements (mm) and using the formula for an ellipsoid sphere: tumor volume (mm^3)=length×width^2/2, where length and width refer to the larger and smaller perpendicular dimensions collected at each measurement. The animal behavior and animal health are monitored twice a day during dosing period. The study is terminated on day 28 post treatment initiation.
(§2) The statistical analysis of the tumor volume data begins with a data transformation to a log scale to equalize variance across time and treatment groups. The log volume data are analyzed with a two-way repeated measures analysis of variance by time and treatment using the MIXED procedures in SAS software (Version 9.3). The correlation model for the repeated measures is Spatial Power. Treated groups are compared to the control group at each time point. The MIXED procedure is also used separately for each treatment group to calculate adjusted means and standard errors at each time point. Both analyses account for the autocorrelation within each animal and the loss of data that occurs when animals with large tumors are removed from the study early. The adjusted means and standard errors are plotted for each treatment group versus time. The analysis comparing the treated groups to the control groups at each time point uses the log 10 tumor volumes and produces the p-values. For statistical significance of p-values shown, “***”=P<0.001.
(§3) If T>T0, the Delta T/C, % calculation is used. […]

[3] = as above; format: in vivo; conditions: female, athymic Balb/c nude, mouse, in vivo, po; BID orally for 2 weeks, tumor-bearing nude mice; read-out: maximum tolerated dose
Procedure: as §1, §2, §3

T1 sequence (O00311 whole entry): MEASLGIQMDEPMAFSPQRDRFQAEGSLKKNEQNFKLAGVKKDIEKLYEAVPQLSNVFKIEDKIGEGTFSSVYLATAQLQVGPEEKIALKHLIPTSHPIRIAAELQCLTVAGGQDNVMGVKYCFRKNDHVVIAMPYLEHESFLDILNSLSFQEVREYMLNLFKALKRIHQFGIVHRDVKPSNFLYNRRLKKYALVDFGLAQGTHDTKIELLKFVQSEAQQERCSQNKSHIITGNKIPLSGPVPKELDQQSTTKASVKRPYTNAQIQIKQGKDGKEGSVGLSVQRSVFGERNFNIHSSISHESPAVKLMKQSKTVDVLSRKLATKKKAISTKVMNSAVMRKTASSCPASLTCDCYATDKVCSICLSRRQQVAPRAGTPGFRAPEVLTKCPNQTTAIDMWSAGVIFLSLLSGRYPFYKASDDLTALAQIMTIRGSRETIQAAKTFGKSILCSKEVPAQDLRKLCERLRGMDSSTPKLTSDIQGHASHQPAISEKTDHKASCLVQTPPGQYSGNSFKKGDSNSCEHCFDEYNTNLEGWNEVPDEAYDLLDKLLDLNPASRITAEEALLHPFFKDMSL
T1 sequence (Q9UBU7 whole entry partner): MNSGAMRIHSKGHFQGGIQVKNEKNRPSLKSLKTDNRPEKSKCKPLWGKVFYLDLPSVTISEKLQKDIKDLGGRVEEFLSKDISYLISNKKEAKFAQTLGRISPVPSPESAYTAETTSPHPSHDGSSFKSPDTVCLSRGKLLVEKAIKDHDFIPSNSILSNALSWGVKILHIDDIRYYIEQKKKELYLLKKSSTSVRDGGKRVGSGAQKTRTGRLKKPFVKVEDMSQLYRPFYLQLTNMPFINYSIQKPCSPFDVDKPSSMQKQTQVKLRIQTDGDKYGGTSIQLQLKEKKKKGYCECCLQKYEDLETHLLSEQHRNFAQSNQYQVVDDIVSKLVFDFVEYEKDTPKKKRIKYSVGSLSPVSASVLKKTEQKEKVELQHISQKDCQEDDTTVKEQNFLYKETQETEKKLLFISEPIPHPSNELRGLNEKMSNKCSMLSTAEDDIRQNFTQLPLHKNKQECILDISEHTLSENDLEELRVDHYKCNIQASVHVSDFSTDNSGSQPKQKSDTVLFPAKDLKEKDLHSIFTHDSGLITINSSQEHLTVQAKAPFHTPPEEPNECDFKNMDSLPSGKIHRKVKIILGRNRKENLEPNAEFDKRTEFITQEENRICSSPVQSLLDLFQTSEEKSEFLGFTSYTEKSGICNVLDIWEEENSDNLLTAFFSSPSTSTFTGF

CC1(c2ncncc2F)NC(=O)c2cc(-c3cn[nH]c3)ccc21 (single isomer, unassigned; isomer 2) [Example 4, 3-(5-Fluoropyrimidin-4-yl)-3-methyl-6-(1H-pyrazol-4-yl)isoindolin-1-one, Isomer 2, Hydrate]
IC50 [1]: 3.3 nM | % T/C day 16 ([2]; 10.4 mg/kg BID × 14, orally): 26.1*** % | % T/C day 16 ([2]; 20.8 mg/kg BID × 14, orally): 5.7*** % | % T/C day 16 ([2]; 31.2 mg/kg BID × 14, orally, negative value = regression): −66.1*** % | tumor growth after dosing cessation ([2]; 31.2 mg/kg BID, 2 weeks after dosing cessation): no significant tumor growth | MTD at 2 weeks [3]: 31.2 mg/kg
